Experimental data published in US8124647B2 (priority 2002, dated 2012).

Columns and labels:
human androgen receptor [1] = target: T1, human androgen receptor (Homo sapiens, UniProt P10275); assay: androgenic activity (EC50 and intrinsic activity), transactivation bioassay in CHO-AR-pMMTV-LUC cells (Table 4); type: cell-based; conditions: androgenic activity, read-out: ago EC50
T1 construct: expressed in transfected cells; host or cells: CHO cells, cell line CHO-AR-pMMTV-LUC 1G12-A5-CA
T1 sequence (P10275 1-920): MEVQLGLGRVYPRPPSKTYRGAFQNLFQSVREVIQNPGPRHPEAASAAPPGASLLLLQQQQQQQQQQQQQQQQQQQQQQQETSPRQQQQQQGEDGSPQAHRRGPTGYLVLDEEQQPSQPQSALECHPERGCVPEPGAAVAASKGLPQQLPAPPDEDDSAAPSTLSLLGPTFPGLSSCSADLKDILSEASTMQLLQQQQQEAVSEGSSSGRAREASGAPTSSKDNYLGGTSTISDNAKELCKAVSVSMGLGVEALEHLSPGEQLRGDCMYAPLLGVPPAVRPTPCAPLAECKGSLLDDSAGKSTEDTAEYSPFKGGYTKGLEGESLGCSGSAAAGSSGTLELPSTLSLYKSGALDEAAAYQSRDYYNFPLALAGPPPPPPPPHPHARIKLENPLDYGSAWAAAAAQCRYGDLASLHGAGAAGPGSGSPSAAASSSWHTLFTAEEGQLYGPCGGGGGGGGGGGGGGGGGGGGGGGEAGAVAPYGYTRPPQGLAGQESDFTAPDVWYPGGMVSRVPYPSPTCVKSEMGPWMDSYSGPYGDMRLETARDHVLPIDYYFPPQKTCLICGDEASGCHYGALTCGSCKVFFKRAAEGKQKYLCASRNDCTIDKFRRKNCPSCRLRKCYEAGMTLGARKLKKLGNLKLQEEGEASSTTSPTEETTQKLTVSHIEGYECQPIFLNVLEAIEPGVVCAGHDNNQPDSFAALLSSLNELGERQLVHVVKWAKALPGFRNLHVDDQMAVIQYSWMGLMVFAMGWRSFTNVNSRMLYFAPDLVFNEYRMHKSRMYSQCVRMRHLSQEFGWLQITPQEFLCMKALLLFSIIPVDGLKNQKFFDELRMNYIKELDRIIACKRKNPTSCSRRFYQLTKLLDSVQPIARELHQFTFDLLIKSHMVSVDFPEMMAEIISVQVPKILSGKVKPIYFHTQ
Protocol: (§1) Compounds were tested for their Androgen Receptor activity in a transactivation assay and in a binding assay.
(§2) The (anti-)androgenic activity of test compounds (EC50 and intrinsic activity) was determined in an in vitro bioassay of Chinese hamster ovary (CHO) cells stably transfected with the human androgen receptor expression plasmid and a reporter plasmid in which the MMTV-promoter is linked to the luciferase reporter gene. The cell-line CHO-AR-pMMTV-LUC 1G12-A5-CA is described in Schoonen et al. (2000), Journal of Steroid Biochemistry and Molecular Biology 74(4):213-222. The antiandrogenic activity of a test compound was determined by the inhibition of the transactivation via the androgen receptor of the enzyme luciferase in the presence of 1 nM DHT (5α-dihydrotestosterone, 17β-hydroxy-5α-androstan-3-one). Intrinsic activity of antiandrogenic activity was determined in the presence of the reference antiandrogen 2-Hydroxy-2-methyl-N-(4-nitro-3-trifluoromethyl-phenyl)-propionamide(Hydroxyflutamide), and set at 100%. For androgenic activity, maximal intrinsic activity in the presence of 100 nM DHT was set at 100%.

human androgen receptor [2] = target: T1, human androgen receptor; assay: cell-based; conditions: antiandrogenic activity, in the presence of 1 nM DHT; read-out: ant EC50
Protocol: as §1, §2

COc1ccc2c(Sc3ccccc3C#N)cn(Cc3cc(F)cc(F)c3)c2c1 [Compound 20, 2-[1-(3,5-Difluoro-benzyl)-6-methoxy-1H-indol-3-ylsulfanyl]-benzonitrile]
EC50 (human androgen receptor [1]): 5 to 100 nM | EC50 (human androgen receptor [2]): > 10000 nM

O=[N+]([O-])c1ccccc1Sc1cn(Cc2cc(F)cc(F)c2)c2cc(Br)ccc12 [Compound 22]
EC50 (human androgen receptor [1]): 5 to 100 nM | EC50 (human androgen receptor [2]): > 10000 nM

O=[N+]([O-])c1ccccc1Sc1cn(Cc2cc(F)cc(F)c2)c2cc(C(F)(F)F)ccc12 [Compound 23]
EC50 (human androgen receptor [1]): < 5 nM | EC50 (human androgen receptor [2]): > 10000 nM

O=[N+]([O-])c1ccccc1Sc1cn(Cc2cc(F)cc(F)c2)c2cc(CO)ccc12 [Compound 24]
EC50 (human androgen receptor [1]): 5 to 100 nM | EC50 (human androgen receptor [2]): > 10000 nM

O=[N+]([O-])c1ccccc1Sc1cn(Cc2cc(F)cc(F)c2)c2cc(Cl)ccc12 [Compound 25]
EC50 (human androgen receptor [1]): < 5 nM | EC50 (human androgen receptor [2]): > 10000 nM

N#Cc1ccc2c(Sc3ccccc3[N+](=O)[O-])cn(Cc3cc(F)cc(F)c3)c2c1 [Compound 26, 1-(3,5-Difluoro-benzyl)-3-(2-nitro-phenylsulfanyl)-1H-indole-6-carbonitrile]
EC50 (human androgen receptor [1]): < 5 nM | EC50 (human androgen receptor [2]): > 10000 nM

O=C(c1ccc2c(Sc3ccccc3[N+](=O)[O-])cn(Cc3cc(F)cc(F)c3)c2c1)N1CCCC1 [Compound 27]
EC50 (human androgen receptor [1]): 5 to 100 nM | EC50 (human androgen receptor [2]): > 10000 nM

O=C(c1ccc2c(Sc3ccccc3[N+](=O)[O-])cn(Cc3cc(F)cc(F)c3)c2c1)N1CCOCC1 [Compound 28]
EC50 (human androgen receptor [1]): 5 to 100 nM | EC50 (human androgen receptor [2]): > 10000 nM

CN1CCN(C(=O)c2ccc3c(Sc4ccccc4[N+](=O)[O-])cn(Cc4cc(F)cc(F)c4)c3c2)CC1 [Compound 29]
EC50 (human androgen receptor [1]): 5 to 100 nM | EC50 (human androgen receptor [2]): > 10000 nM

O=C(O)c1ccc2c(Sc3ccccc3[N+](=O)[O-])cn(Cc3cc(F)cc(F)c3)c2c1 [Compound 30, 1-(3,5-Difluoro-benzyl)-3-(2-nitro-phenylsulfanyl)-1H-indole-6-carboxylic acid]
EC50 (human androgen receptor [1]): < 1000 nM | EC50 (human androgen receptor [2]): > 10000 nM

COC(=O)c1ccc2c(Sc3ccccc3[N+](=O)[O-])cn(Cc3cc(F)cc(F)c3)c2c1 [Compound 31, 1-(3,5-Difluoro-benzyl)-3-(2-nitro-phenylsulfanyl)-1H-indole-6-carboxylic acid methyl ester]
EC50 (human androgen receptor [1]): < 5 nM | EC50 (human androgen receptor [2]): > 10000 nM

CCN(CC)C(=O)c1ccc2c(Sc3ccccc3[N+](=O)[O-])cn(Cc3cc(F)cc(F)c3)c2c1 [Compound 32]
EC50 (human androgen receptor [1]): 5 to 100 nM | EC50 (human androgen receptor [2]): < 1000 nM

NC(=O)c1ccc2c(Sc3ccccc3[N+](=O)[O-])cn(Cc3cc(F)cc(F)c3)c2c1 [Compound 33, 1-(3,5-Difluoro-benzyl)-3(2-nitro-phenylsulfanyl)-1H-indole-6-carboxylic acid amide]
EC50 (human androgen receptor [1]): < 5 nM | EC50 (human androgen receptor [2]): > 10000 nM

O=C(NCc1ccco1)c1ccc2c(Sc3ccccc3[N+](=O)[O-])cn(Cc3cc(F)cc(F)c3)c2c1 [Compound 34]
EC50 (human androgen receptor [1]): 5 to 100 nM | EC50 (human androgen receptor [2]): > 10000 nM

O=C(NCc1cccnc1)c1ccc2c(Sc3ccccc3[N+](=O)[O-])cn(Cc3cc(F)cc(F)c3)c2c1 [Compound 35]
EC50 (human androgen receptor [1]): 5 to 100 nM | EC50 (human androgen receptor [2]): > 10000 nM

CN(C)CCNC(=O)c1ccc2c(Sc3ccccc3[N+](=O)[O-])cn(Cc3cc(F)cc(F)c3)c2c1 [Compound 36]
EC50 (human androgen receptor [1]): 5 to 100 nM | EC50 (human androgen receptor [2]): > 10000 nM

O=C(NCCO)c1ccc2c(Sc3ccccc3[N+](=O)[O-])cn(Cc3cc(F)cc(F)c3)c2c1 [Compound 37]
EC50 (human androgen receptor [1]): < 5 nM | EC50 (human androgen receptor [2]): > 10000 nM

COCCNC(=O)c1ccc2c(Sc3ccccc3[N+](=O)[O-])cn(Cc3cc(F)cc(F)c3)c2c1 [Compound 38]
EC50 (human androgen receptor [1]): < 5 nM | EC50 (human androgen receptor [2]): > 10000 nM

COC(=O)CNC(=O)c1ccc2c(Sc3ccccc3[N+](=O)[O-])cn(Cc3cc(F)cc(F)c3)c2c1 [Compound 39]
EC50 (human androgen receptor [1]): 5 to 100 nM | EC50 (human androgen receptor [2]): > 10000 nM

CN(C)C(=O)CNC(=O)c1ccc2c(Sc3ccccc3[N+](=O)[O-])cn(Cc3cc(F)cc(F)c3)c2c1 [Compound 40]
EC50 (human androgen receptor [1]): 5 to 100 nM | EC50 (human androgen receptor [2]): > 10000 nM

O=C(NCC1CC1)c1ccc2c(Sc3ccccc3[N+](=O)[O-])cn(Cc3cc(F)cc(F)c3)c2c1 [Compound 41]
EC50 (human androgen receptor [1]): < 5 nM | EC50 (human androgen receptor [2]): > 10000 nM
